Data as given in ChEMBL document CHEMBL4602687, “Dual Binding to Orthosteric and Allosteric Sites Enhances the Anticancer Activity of a TRAP1-Targeting Drug” (J Med Chem, 2020).
Active and inactive are the calls of the source.

Legend:
NCI-H460 [1] = assay: Cytotoxicity against human NCI-H460 cells assessed as reduction in cell viability up to 3 uM measured after 24 hrs by MTT assay; type: functional, cell-based
LN-229 = assay: Cytotoxicity against human LN229 cells assessed as reduction in cell viability up to 3 uM measured after 24 hrs by MTT assay; type: functional, cell-based
PC-3 = assay: Cytotoxicity against human PC3 cells assessed as reduction in cell viability up to 3 uM measured after 24 hrs by MTT assay; type: functional, cell-based
HeLa = assay: Cytotoxicity against human HeLa cells assessed as reduction in cell viability up to 3 uM measured after 24 hrs by MTT assay; type: functional, cell-based
[2] = molecular target: T1, Heat shock protein 75 kDa, mitochondrial (Homo sapiens) (UniProt Q12931); assay: Inhibition of recombinant wild-type human TRAP1 ATPase activity expressed in Escherichia coli BL21 (DE3) preincubated for 0.5 hrs followed by ATP addition and measured after 3 hrs by PiColorLock Gold reagent based colorimetric assay
T1 sequence (whole entry): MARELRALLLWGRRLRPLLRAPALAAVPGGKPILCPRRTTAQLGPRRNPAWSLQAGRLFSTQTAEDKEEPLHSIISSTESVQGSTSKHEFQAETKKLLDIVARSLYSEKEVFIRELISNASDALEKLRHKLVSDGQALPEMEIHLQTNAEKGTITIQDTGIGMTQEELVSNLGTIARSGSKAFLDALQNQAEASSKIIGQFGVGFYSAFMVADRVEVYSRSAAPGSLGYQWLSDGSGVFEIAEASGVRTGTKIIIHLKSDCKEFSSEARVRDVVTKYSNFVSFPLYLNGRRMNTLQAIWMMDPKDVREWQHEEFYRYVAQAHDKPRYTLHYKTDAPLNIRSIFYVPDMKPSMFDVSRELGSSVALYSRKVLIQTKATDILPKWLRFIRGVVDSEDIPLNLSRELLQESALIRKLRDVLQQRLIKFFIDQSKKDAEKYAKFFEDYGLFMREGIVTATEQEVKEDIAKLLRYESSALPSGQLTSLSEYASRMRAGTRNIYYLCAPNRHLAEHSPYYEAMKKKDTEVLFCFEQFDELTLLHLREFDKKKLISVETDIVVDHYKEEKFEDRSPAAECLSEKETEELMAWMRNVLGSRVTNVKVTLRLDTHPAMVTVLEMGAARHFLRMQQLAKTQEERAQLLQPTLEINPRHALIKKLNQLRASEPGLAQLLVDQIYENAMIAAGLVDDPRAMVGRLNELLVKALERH

[3] = molecular target: T1, Heat shock protein 75 kDa, mitochondrial (Homo sapiens); assay: Inhibition of recombinant wild-type human TRAP1 chaperone activity expressed in Escherichia coli BL21 (DE3) at 5 uM preincubated for 30 mins followed by denatured luciferase and ATP addition by luciferase refolding assay
[4] = molecular target: T1, Heat shock protein 75 kDa, mitochondrial (Homo sapiens); assay: Binding affinity to recombinant wild-type human TRAP1 ATP site expressed in Escherichia coli BL21 (DE3) assessed as induction of conformational change by measuring closed state population of TRAP1 at 10 uM preincubated for 30 mins followed by ATP addition and measured after 30 mins by TEM analysis (reference value: 52.1 +/- 0.6 %)
[5] = molecular target: T1, Heat shock protein 75 kDa, mitochondrial (Homo sapiens); assay: Binding affinity to recombinant wild-type human TRAP1 ATP site expressed in Escherichia coli BL21 (DE3) assessed as induction of conformational change by measuring closed state population of TRAP1 at 10 uM measured after 30 mins in absence of ATP by TEM analysis (reference value: 52.1 +/- 0.6 %)
Mus musculus [6] = assay: In vivo inhibition of TRAP1 in nude mouse xenografted with human NCI-H460 cells assessed as increase in SDHB degradation at 5 mg/kg, ip administered daily by Western blot analysis; type: functional, organism-based
NCI-H460 [7] = assay: Antitumor activity against human NCI-H460 cells xenografted in nude mouse assessed as reduction in tumor cell proliferation at 5 mg/kg, ip administered daily by Ki67 staining based immunohistochemistry analysis; type: functional, organism-based
NCI-H460 [8] = assay: Antitumor activity against human NCI-H460 cells xenografted in nude mouse assessed as tumor growth inhibition at 5 mg/kg, ip administered daily; type: functional, organism-based
[9] = molecular target: T1, Heat shock protein 75 kDa, mitochondrial (Homo sapiens); assay: Inhibition of TRAP1 in human PC3 cells assessed as reduction in SDHB expression at 5 uM measured after 2 to 12 hrs by Western blot analysis; type: cell-based; conditions: PC-3
Homo sapiens [10] = species: Homo sapiens; assay: Inhibition of recombinant full-length human TRAP1 W383/W4F mutant expressed in Escherichia coli BL21 (DE3) assessed as intrinsic fluorescence quenching of tryptophan residues at 10 uM measured after 1 hr by fluorescence spectrophotometric method
NCI-H460 [11] = assay: Antitumor activity against human NCI-H460 cells xenografted in nude mouse assessed as induction of tumor cell death by measuring increase in cleaved caspase-3 expression at 5 mg/kg, ip administered daily by Western blot analysis; type: functional, organism-based
NCI-H460 [12] = assay: Antitumor activity against human NCI-H460 cells xenografted in nude mouse assessed as induction of tumor cell death by measuring increase in cleaved caspase-9 expression at 5 mg/kg, ip administered daily by Western blot analysis; type: functional, organism-based
[13] = molecular target: T1, Heat shock protein 75 kDa, mitochondrial (Homo sapiens); assay: Inhibition of TRAP1 in human PC3 cells assessed as increase in CHOP expression at 5 uM measured after 2 to 12 hrs by Western blot analysis; type: cell-based; conditions: PC-3
[14] = molecular target: T1, Heat shock protein 75 kDa, mitochondrial (Homo sapiens); assay: Inhibition of TRAP1 in human PC3 cells assessed as increase in reactive oxygen species generation at 10 uM measured after 2 hrs by Mito-SOX probe based flow cytometry; type: cell-based; conditions: PC-3
[15] = molecular target: T1, Heat shock protein 75 kDa, mitochondrial (Homo sapiens); assay: Inhibition of TRAP1 in human PC3 cells assessed as loss of mitochondrial membrane potential at 10 uM measured after 2 hrs by TMRM dye based flow cytometry; type: cell-based; conditions: PC-3
Mus musculus [16] = assay: In vivo inhibition of TRAP1 in nude mouse xenografted with human NCI-H460 cells assessed as increase in SIRT3 degradation at 5 mg/kg, ip administered daily by Western blot analysis; type: functional, organism-based
Mus musculus [17] = assay: In vivo inhibition of TRAP1 in nude mouse xenografted with human NCI-H460 cells assessed as increase in AMPK phosphorylation at 5 mg/kg, ip administered daily by Western blot analysis; type: functional, organism-based
[18] = molecular target: T1, Heat shock protein 75 kDa, mitochondrial (Homo sapiens); assay: Inhibition of TRAP1 in human PC3 cells assessed as increase in AMPK phosphorylation at 5 uM measured after 2 to 12 hrs by Western blot analysis; type: cell-based; conditions: PC-3
Homo sapiens [19] = species: Homo sapiens; assay: Inhibition of recombinant full-length human TRAP1 W585/W4F mutant expressed in Escherichia coli BL21 (DE3) assessed as intrinsic fluorescence quenching of tryptophan residues at 10 uM measured after 1 hr by fluorescence spectrophotometric method
Mus musculus [20] = assay: In vivo inhibition of TRAP1 in nude mouse xenografted with human NCI-H460 cells assessed as increase in CHOP expression at 5 mg/kg, ip administered daily by Western blot analysis; type: functional, organism-based
[21] = molecular target: T1, Heat shock protein 75 kDa, mitochondrial (Homo sapiens); assay: Inhibition of TRAP1 in human PC3 cells assessed as reduction in SIRT3 expression at 5 uM measured after 2 to 12 hrs by Western blot analysis; type: cell-based; conditions: PC-3

CC(C)c1cc(-c2n[nH]c(=O)n2-c2ccc3c(ccn3C)c2)c(O)cc1O
active: Activity (NCI-H460 [1]) | Activity (LN-229) | Activity (PC-3) | Activity (HeLa)

CC(C)NCCCn1c(Sc2cc3c(cc2I)OCO3)nc2c(N)ncnc21
28.3%: Activity [5]
active: inhibition [2] | inhibition [3] | Activity (NCI-H460 [1]) | Activity (LN-229) | Activity (PC-3) | Activity (HeLa)
26.5%: Activity [4]

Nc1ncnc2c1nc(Sc1cc3c(cc1I)OCO3)n2CCCCCCCC[P+](c1ccccc1)(c1ccccc1)c1ccccc1
active: inhibition [2]

CO[C@H]1/C=C\C=C(/C)C(=O)NC2=CC(=O)C(NCCCCCC[P+](c3ccccc3)(c3ccccc3)c3ccccc3)=C(C[C@@H](C)C[C@H](OC)[C@H](O)[C@@H](C)/C=C(\C)[C@@H]1OC(N)=O)C2=O
active: Activity (NCI-H460 [1]) | Activity (LN-229) | Activity (PC-3)

Nc1ncnc2c1nc(Sc1cc3c(cc1I)OCO3)n2CCC[P+](c1ccccc1)(c1ccccc1)c1ccccc1
active: inhibition [2]

Nc1ncnc2c1nc(Sc1cc3c(cc1I)OCO3)n2CCCCCCCCCCCC[P+](c1ccccc1)(c1ccccc1)c1ccccc1
active: inhibition [2]

Nc1ncnc2c1nc(Sc1cc3c(cc1I)OCO3)n2CCCCCC[P+](c1ccccc1)(c1ccccc1)c1ccccc1
active: inhibition [2] | inhibition (Homo sapiens [10]) | inhibition [14] | inhibition [3] | inhibition [15] | Activity (NCI-H460 [1]) | inhibition (Homo sapiens [19]) | Activity (LN-229) | Activity (PC-3) | Activity (HeLa)
41.3%: Activity [4]
28.2%: Activity [5]
inactive: inhibition (Mus musculus [6]) | Activity (NCI-H460 [7]) | TGI (NCI-H460 [8]) | inhibition [9] | Activity (NCI-H460 [11]) | Activity (NCI-H460 [12]) | inhibition [13] | inhibition (Mus musculus [16]) | inhibition (Mus musculus [17]) | inhibition [18] | inhibition (Mus musculus [20]) | inhibition [21]
